{"source": "patent US4916122A", "about": "“3'-Azido-2',3'-dideoxyuridine anti-retroviral composition” (University of Georgia Research Foundation, Inc., priority 1987, dated 1990)", "key": {"HIV RT": {"target": "T1, HIV RT (Human immunodeficiency virus type 1 group M subtype B, UniProt P03367)", "T1 construct": "HIV reverse transcriptase", "assay": "Effect of 5'-triphosphates on HIV reverse transcriptase (Table 6)", "format": "biochemical", "conditions": "5'-triphosphate; read-out: HIV RT K1"}, "Host cell α-DNA pol": {"target": "T2, Host cell α-DNA pol (Homo sapiens, UniProt P09884)", "T2 sequence (P09884 1-1462)": "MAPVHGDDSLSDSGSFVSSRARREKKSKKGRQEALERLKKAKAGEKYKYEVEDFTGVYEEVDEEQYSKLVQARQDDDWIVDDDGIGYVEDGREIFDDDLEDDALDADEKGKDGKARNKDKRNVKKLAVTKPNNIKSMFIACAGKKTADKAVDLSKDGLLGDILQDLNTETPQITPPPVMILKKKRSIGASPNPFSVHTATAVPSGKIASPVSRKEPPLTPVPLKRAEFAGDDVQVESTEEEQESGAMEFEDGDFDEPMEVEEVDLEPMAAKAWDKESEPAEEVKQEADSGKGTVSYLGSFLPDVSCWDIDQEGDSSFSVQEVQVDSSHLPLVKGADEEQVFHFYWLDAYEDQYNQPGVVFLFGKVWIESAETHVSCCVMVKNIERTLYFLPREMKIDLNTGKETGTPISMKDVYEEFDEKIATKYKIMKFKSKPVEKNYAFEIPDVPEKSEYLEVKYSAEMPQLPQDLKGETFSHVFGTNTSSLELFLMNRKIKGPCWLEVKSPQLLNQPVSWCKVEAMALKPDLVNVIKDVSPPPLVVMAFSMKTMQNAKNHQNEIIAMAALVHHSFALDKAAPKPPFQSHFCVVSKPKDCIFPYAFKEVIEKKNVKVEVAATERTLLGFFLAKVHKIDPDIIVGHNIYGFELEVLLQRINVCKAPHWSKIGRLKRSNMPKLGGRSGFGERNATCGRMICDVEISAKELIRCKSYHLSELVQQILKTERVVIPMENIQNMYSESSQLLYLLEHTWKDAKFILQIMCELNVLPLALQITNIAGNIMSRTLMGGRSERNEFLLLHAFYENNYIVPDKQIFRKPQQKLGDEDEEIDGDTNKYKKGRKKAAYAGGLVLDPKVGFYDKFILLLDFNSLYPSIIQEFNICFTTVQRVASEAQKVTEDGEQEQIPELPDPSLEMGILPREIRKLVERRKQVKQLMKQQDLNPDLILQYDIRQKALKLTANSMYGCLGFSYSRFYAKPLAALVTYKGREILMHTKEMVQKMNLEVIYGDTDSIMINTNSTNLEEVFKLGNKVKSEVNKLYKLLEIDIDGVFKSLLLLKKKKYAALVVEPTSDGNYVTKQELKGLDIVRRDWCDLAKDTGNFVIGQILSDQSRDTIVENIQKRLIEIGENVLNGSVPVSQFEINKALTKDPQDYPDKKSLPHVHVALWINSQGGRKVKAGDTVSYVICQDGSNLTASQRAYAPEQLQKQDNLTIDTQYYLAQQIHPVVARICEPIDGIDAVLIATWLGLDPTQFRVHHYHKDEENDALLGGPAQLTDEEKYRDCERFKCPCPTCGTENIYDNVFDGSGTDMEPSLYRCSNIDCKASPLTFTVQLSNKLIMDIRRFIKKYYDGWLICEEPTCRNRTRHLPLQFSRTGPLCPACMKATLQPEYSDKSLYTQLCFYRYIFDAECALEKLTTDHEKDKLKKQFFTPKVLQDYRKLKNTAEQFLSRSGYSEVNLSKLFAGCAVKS", "assay": "Effect of 5'-triphosphates on alpha DNA polymerase (Table 6)", "format": "biochemical"}, "HIV (LAV-1)": {"system": "HIV (LAV-1)", "assay": "Median effective antiviral concentration against HIV (Table 5)", "format": "cell-based", "conditions": "Human immunodeficiency virus 1"}, "SIV (SMM)": {"system": "SIV (SMM)", "assay": "Median effective antiviral concentration against SIV (Table 5)", "format": "cell-based, simian immunodeficiency virus", "conditions": "Simian immunodeficiency virus", "excerpt": "(§1) A comparison of the differences in median effective an tiviral concentrations between human, non-human primate, and murine retroviruses is shown in Table 5. […] A further comparison of the activity of several nucleoside analogues, including CS-87, against HIV-1 and SIV in human PBM cells is shown in FIG. 6. The effect of delayed treatment with AZT, CS-87 or CS-91 on the replication of HIV-1 and SIV in human PBM cells is shown in FIGS. 7a, b, and c."}, "[1]": {"system": "Mouse ecotropic (Cas-Br-M)", "assay": "Median effective antiviral concentration against mouse ecotropic virus (Table 5)", "format": "cell-based, murine retrovirus", "conditions": "unidentified retrovirus", "excerpt": "as §1"}, "HIV-1 and SIV": {"system": "HIV-1 and SIV", "assay": "Effect of delayed treatment on replication of HIV-1 and SIV in human PBM cells (FIG. 7)", "format": "cell-based, HIV-1; SIV", "excerpt": "as §1"}, "L1210 cells": {"system": "L1210 cells", "conditions": "in vitro; Lin et al.; Lin and Mancini; cited from earlier work"}, "sarcoma 180 cells": {"system": "sarcoma 180 cells", "conditions": "in vitro; Lin et al.; cited from earlier work"}, "[2]": {"system": "two particular enzymes isolated from L1210 cells", "conditions": "Lin et al.; cited from earlier work"}, "HIV-1 (Strain RF-II)": {"system": "HIV-1 (Strain RF-II)", "assay": "Antiviral activity against HIV-1 in HeLa-T4 cells (Table 4)", "format": "cell-based", "conditions": "Human immunodeficiency virus 1, HeLaT4, HIV-1", "description": "Evaluation in Hela-T4 cells infected with HIV-1 (Strain RF-II)\nHeLa-T4 cells (described in Cell 47: 333, 1986) are maintained in Dulbecco's Modified Eagle medium containing 10% inactivated fetal calf serum, penicillin (100 U/ml) and streptomycin (100 μg/ml), and the antibiotic G418 (1 mg/ml). The cells are seeded onto a 96-well plate (2×10^4 cells/well per 0.1 ml), and two days later, the supernatant is removed and the virus added. After adsorption for 45 minutes, the inoculum is removed and the cells washed with phosphate-buffered saline (pH 7.2). The compounds at different concentration are then added in maintenance medium (containing 2% serum). […] The cells are fixed with a mixture of 5% glacial acetic acid/95% Ethanol for 15 minutes, and then stained with Giemsa (20% in PSB) for 4 hours. The plates are then washed and dried. The foci are then enumerated with a dissecting stereomicroscope."}, "HIV-1": {"system": "HIV-1", "assay": "microbe, parasite or virus in culture", "conditions": "Human immunodeficiency virus 1, PBMC, read-out: PBM (EC50)"}, "HIV-1 (Strain HTLV-III)": {"system": "HIV-1 (Strain HTLV-III)", "assay": "Antiviral activity against HIV-1 in ATH-8 cells (Table 4)", "conditions": "Human immunodeficiency virus 1, 240 h, read-out: ATH-8 (MIC)"}}}
{"smiles": "[N-]=[N+]=N[C@H]1C[C@H](n2ccc(=O)[nH]c2=O)O[C@@H]1COP(=O)(O)OP(=O)(O)OP(=O)(O)O", "note": "[CS-87-TP, 3'-azido-2',3'-dideoxyuridine triphosphate]", "values": [{"measurement": "Ki", "setting": "HIV RT", "result": 0.009, "unit": "µM"}, {"measurement": "Ki", "setting": "Host cell α-DNA pol; 5'-triphosphate, read-out: Host cell α-DNA pol K1", "result": 1200, "unit": "µM"}, {"measurement": "Ratio: Cellular/HIV", "setting": "Host cell α-DNA pol; K1 host cell α-DNA pol / K1 HIV RT", "result": "133,333"}]}
{"smiles": "[N-]=[N+]=N[C@H]1C[C@H](n2ccc(N)nc2=O)O[C@@H]1CO", "note": "[CS-91, 3' azido 2',3'-dideoxycytidine]", "values": [{"measurement": "EC50", "setting": "HIV (LAV-1)", "result": 0.39, "unit": "µM"}, {"measurement": "EC50", "setting": "SIV (SMM)", "result": 1.16, "unit": "µM"}, {"measurement": "EC50", "setting": "[1]", "result": 77.9, "unit": "µM"}, {"measurement": "effect of delayed treatment on replication of HIV-1 and SIV", "setting": "HIV-1 and SIV", "result": "time of administration is critical to the effectiveness of the treatment"}]}
{"smiles": "Nc1ccn([C@H]2CC[C@@H](CO)O2)c(=O)n1", "note": "[DDC, reference compound]", "values": [{"measurement": "activity against L1210 cells", "setting": "L1210 cells", "result": "inactive"}, {"measurement": "activity against sarcoma 180 cells", "setting": "sarcoma 180 cells", "result": "inactive"}, {"measurement": "inhibitory activity towards two particular enzymes isolated from L1210 cells", "setting": "[2]", "result": "only marginal inhibitory activity"}]}
{"smiles": "Nc1ccn([C@H]2CC[C@@H](CO)O2)c(=O)n1", "note": "[d2C (ddC), 2',3'-dideoxycytidine, reference compound]", "values": [{"measurement": "EC50", "setting": "HIV-1 (Strain RF-II)", "result": 0.48, "unit": "µM"}, {"measurement": "EC50", "setting": "HIV-1", "result": 0.011, "unit": "µM"}, {"measurement": "MIC", "setting": "HIV-1 (Strain HTLV-III)", "result": 0.47, "unit": "µM"}]}
